In experiment [1] the target is T1, PDGFR-β (Homo sapiens, UniProt P09619).
T1 construct: host or cells: NIH 3T3
Put plainly: Biochemical PDGFR assay (ELISA, PDGFR-β expressing NIH 3T3 cell lysate). The note with it: read-out: bio PDGF IC50. The method in brief:
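PDGFR-β from NIH 3T3 cell lysate captured on anti-PDGFR (28D4C10)-coated plates; compound preincubated 30 min, then 20 μM ATP kinase reaction 30 min at room temperature, stopped with EDTA. Phosphotyrosine detected by anti-phosphotyrosine antibody, peroxidase conjugate and ABTS/H2O2, read at 410 nm.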
For orientation: In an ELISA, binding on a coated surface is turned into a signal by an enzyme label.

The target of experiment [2] is T2, flkGST (Homo sapiens, UniProt P35968).
T2 construct: GST
T2 sequence (P35968 786-1356 limits assumed): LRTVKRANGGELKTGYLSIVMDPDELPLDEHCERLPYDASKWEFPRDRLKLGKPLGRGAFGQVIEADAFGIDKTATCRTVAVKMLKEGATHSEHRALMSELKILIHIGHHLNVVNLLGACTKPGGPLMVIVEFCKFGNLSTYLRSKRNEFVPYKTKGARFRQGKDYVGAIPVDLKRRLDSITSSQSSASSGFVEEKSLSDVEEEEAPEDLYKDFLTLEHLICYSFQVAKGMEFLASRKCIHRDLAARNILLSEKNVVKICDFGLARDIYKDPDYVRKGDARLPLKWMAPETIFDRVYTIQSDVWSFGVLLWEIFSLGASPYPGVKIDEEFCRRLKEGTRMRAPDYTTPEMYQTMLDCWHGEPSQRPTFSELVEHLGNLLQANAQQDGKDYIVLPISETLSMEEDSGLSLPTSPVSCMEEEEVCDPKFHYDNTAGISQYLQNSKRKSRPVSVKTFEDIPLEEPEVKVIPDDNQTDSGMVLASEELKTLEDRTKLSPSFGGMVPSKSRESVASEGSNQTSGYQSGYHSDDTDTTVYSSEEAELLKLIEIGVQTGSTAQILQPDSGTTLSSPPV
Put plainly: bio flkGST assay. It is filed as biochemical.

T1 sequence (P09619 33-1106): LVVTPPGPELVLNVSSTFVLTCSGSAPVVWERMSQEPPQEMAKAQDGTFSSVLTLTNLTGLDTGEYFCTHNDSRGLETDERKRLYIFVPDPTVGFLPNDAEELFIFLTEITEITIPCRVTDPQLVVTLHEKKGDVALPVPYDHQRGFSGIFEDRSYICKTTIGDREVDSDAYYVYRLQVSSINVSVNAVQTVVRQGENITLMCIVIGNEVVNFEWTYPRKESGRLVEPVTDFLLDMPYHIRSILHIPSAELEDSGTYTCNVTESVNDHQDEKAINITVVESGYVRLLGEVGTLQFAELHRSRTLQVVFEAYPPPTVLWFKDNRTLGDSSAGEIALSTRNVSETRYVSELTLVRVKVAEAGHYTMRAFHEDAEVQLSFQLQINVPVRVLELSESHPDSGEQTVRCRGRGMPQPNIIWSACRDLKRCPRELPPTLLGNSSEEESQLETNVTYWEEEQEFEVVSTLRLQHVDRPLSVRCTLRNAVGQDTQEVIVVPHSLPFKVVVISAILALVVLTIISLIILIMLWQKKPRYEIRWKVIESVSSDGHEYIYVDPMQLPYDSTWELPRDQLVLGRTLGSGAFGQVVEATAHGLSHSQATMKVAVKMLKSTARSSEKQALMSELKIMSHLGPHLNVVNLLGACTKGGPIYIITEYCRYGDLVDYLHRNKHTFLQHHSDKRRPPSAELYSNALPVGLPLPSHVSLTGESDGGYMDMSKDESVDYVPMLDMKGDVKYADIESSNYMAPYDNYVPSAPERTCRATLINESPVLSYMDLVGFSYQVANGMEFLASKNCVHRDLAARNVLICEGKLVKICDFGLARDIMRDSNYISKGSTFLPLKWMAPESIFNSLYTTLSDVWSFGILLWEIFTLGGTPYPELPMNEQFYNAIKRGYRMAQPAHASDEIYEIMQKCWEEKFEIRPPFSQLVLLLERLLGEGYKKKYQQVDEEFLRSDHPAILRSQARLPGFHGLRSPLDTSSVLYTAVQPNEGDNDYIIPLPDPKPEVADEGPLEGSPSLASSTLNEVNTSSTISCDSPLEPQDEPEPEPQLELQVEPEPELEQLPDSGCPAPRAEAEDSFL

For `O=C(O)CCc1c(/C=C2\C(=O)Nc3cc(-c4ccccc4)ccc32)[nH]c2c1CCCC2` [Example 206, 3-[2-(2-oxo-6-phenyl-1,2-dihydroindol-3-ylidenemethyl)-4,5,6,7-tetrahydro-1H-indol-3-yl]-propionic acid], the IC50 (usually the point on the concentration scale where inhibition reaches its midpoint) in experiment [1] was 40 nM; in experiment [2], 60 nM.

Consider `CC(C)NS(=O)(=O)c1ccc2c(c1)C(=Cc1[nH]c3c(c1CCC(=O)O)CCCC3)C(=O)N2` [Example 208, 3-[2-(5-Isopropylaminosulfonyl-2-oxo-1,2-dihydroindol-3-ylidenemethyl)-4,5,6,7-tetrahydro-1H-indol-3-yl]-propionic acid], for which the IC50 in experiment [1] turned out to be 23400 nM; in experiment [2], 380 nM.

Regarding `Cc1c[nH]c(/C=C2\C(=O)Nc3ccccc32)c1CCC(=O)O` [Example 215, 3-[4-Methyl-2-(2-oxo-1,2-dihydroindol-3-ylidenemethyl)-1H-pyrrol-3-yl]-propionic acid], the IC50 came out at 500 nM in experiment [1] and 80 nM in experiment [2].

As for `Cc1c[nH]c(/C=C2\C(=O)Nc3cccc(C)c32)c1CCC(=O)O` [Example 218, 3-[2-(4-Methyl-2-oxo-1,2-dihydroindol-3-ylidenemethyl)-4-methyl-1H-pyrrol-3-yl]-propionic acid], the IC50 in experiment [1] stood at 2110 nM; in experiment [2] it was 480 nM.

Regarding `Cc1c[nH]c(/C=C2\C(=O)Nc3ccc(Br)cc32)c1CCC(=O)O` [Example 220, 3-[2-(5-Bromo-2-oxo-1,2-dihydroindol-3-ylidenemethyl)-4-methyl-1H-pyrrol-3-yl]-propionic acid], the IC50 came to 620 nM in experiment [1] and 110 nM in experiment [2].

Take `COc1ccc2c(c1)/C(=C/c1[nH]cc(C)c1CCC(=O)O)C(=O)N2` [Example 222, 3-[2-(5-Methoxy-2-oxo-1,2-dihydroindol-3-ylidenemethyl)-4-methyl-1H-pyrrol-3-yl]-propionic acid]: the figures for the IC50 in experiment [1] and in experiment [2] were 3750 nM and 180 nM, respectively.

`COc1cccc(-c2ccc3c(c2)NC(=O)/C3=C\c2[nH]cc(C)c2CCC(=O)O)c1` [Example 223, 3-{2-[6-(3-Methoxyphenyl)-2-oxo-1,2-dihydro-indol-3-ylidenemethyl]-4-methyl-1H-pyrrol-3-yl}-propionic acid]: the IC50 amounted to 781 nM in experiment [1] and 570 nM in experiment [2].

With `CCOc1cccc(-c2ccc3c(c2)NC(=O)/C3=C\c2[nH]cc(C)c2CCC(=O)O)c1` [Example 224, 3-{2-[6-(3-Ethoxyphenyl)-2-oxo-1,2-dihydro-indol-3-ylidenemethyl]-4-methyl-1H-pyrrol-3-yl}-propionic acid], the IC50 in experiment [1] was determined as 2380 nM; in experiment [2], 670 nM.

(Values after patent US6855730B2, “3-methylidenyl-2-indolinone modulators of protein kinase” (Sugen, Inc., priority 1998, dated 2005).)
